Experimental findings from US5179089A, “Isoquinoline compounds, compositions and use” (Chinoin Gyogyszer es Vegyeszeti Termekek Gyara Rt., priority 1990, dated 1993) are described below.

In data set [1] the test system is histamine-induced constriction of isolated tracheal smooth muscle of guinea pig. The data set is described as follows: Inhibition of the histamine-induced constriction of isolated tracheal smooth muscle of guinea pig. To be noted: Cavia porcellus, 0.25 h, isolated guinea pig trachea, read-out: Inhibition of the histamine-induced constriction of isolated tracheal smooth muscle of guinea pig pd'2 (converted). How it is done: I Study on the Effects Against Spasmogenic Mediators [modified method of J. C. […] The investigation on isolated organs were carried out as follows. OHF Lt/R9 guinea pigs of both sexes weighing 300 to 400 g each were anaesthetized by pentobarbital. Their trachea was removed and sectioned in the opposite side to the site of smooth muscle in longitudinal direction. Subsequently, a strip-like preparation was obtained by […] cutting. […] A rest load of 0.5 g was used. Several washings were carried out during the incubation period of 30 minutes. The change in the tension of the tracheal smooth muscle was followed by using an isometric Grass FT-03 type tensiometer sensor device. A washing was made following the cumulative dose series of the given mediator (e.g. histamine). After reaching the base line, by 15 minutes after administration of the given concentration of the inhibitory (antiasthmatic) substance to be tested, the next cumulative dose series of the mediator was administered. In the case of an inhibitory action, the strength of effect, following the second dose series of the mediator, was […] in comparison to that of the first (control) series. For characterization of strength of the competitive antagonistic effect the pA2 value was determined according to the method of […] A pd'2 value was calculated [J. M. Van Rossum: Arch. Int.

The subject of data set [2] is active local anaphylactic reaction. The data set is described as follows: Effect influencing the active local anaphylactic reaction on rat. It counts as in vivo, rat (female OFA). To be noted: oral dose of 50 mg/kg, 30th minute after induction. How it is done: 1) The effect influencing the active local anaphylactic reaction was measured according to the method of M. Koltay [Arch. Allergy App. Immun. 71, 181 (1983)].
Female OFA rats weighing 160 to 180 g each were sensitized by bovine serum albumin (BSA) adsorbed to 50 μg of Al(OH)3 gel together with the simultaneous administration of Bordatella pertussis vaccine.
The anaphylactic reaction was elicited by injecting 100 μg of BSA into the right hind paw plant in the 14th day.
The measurements were carried out before and 30 minutes after eliciting the reaction. The animals were orally treated with the compound to be tested 1 hour before the injection of BSA. The results were expressed as percentage inhibition compared to the control group (average %±S.E.M.).

Data set [3] deals with carrageenin-induced rat paw edema. The data set is described as follows: Carrageenin-induced rat paw edema test. It counts as in vivo, rat (female CFY). The conditions noted are these: Rattus norvegicus, po, 50 mg/kg (p.o.), read-out: Percentage of the protective effect. The protocol:
Proc. Soc. Exp. Med. 111, 544 (1962)]. Female CFY rats weighing 100 to 120 g each were used after starvation for 24 hours. The inflammation was induced by injecting 0.1 ml of 1% carrageenin solution into the right hind paw plant. The severity of inflammation was determined by using an Ugo-Basile type plethysmometer. The measurement was carried out before and 1.5, 3 and 4.5 hours after induction of the inflammation. The animals were orally treated with the substance to be tested 1 hour before administration of carrageenin. The effect was expressed as percentage inhibition related to the control group.
(In the carrageenan paw model, swelling and tenderness develop within hours.)

Data set [4] concerns dextran-induced rat paw edema. Kind of data set: Dextran-induced rat paw edema test. It counts as in vivo. To be noted: 50 mg/kg (p.o.). How it is done: 3) Dextran-induced rat paw edema test The method of S. Gourvaisier and R. Ducrot [Arch. Int. Pharmacodyn. Ther. 102, 33 (1955)] was employed. The method described for the carrageenin edema test was followed, except that the measurements were carried out 30, 60, 90, 120 and 180 minutes after induction of the inflammation.

A short description of the next data set: LD50 on rat. To be noted: in vivo, iv.
Another data set can be described thus: LD50 on mouse. To be noted: in vivo.
The subject of data set [5] is serotonin-induced constriction of the isolated tracheal smooth muscle of the guinea pig. The data set is described as follows: Inhibition of the serotonin-induced constriction of isolated tracheal smooth muscle of guinea pig. The conditions noted are these: Cavia porcellus, 0.25 h, isolated guinea pig trachea, read-out: pd'2 value against serotonin (converted). The protocol:
(§1) I Study on the Effects Against Spasmogenic Mediators
[modified method of J. C.
(§2) The investigation on isolated organs were carried out as follows.
(§3) OHF Lt/R9 guinea pigs of both sexes weighing 300 to 400 g each were anaesthetized by pentobarbital. Their trachea was removed and sectioned in the opposite side to the site of smooth muscle in longitudinal direction. Subsequently, a strip-like preparation was obtained by serrately cutting.
(§4) A rest load of 0.5 g was used. Several washings were carried out during the incubation period of 30 minutes.
(§5) The change in the tension of the tracheal smooth muscle was followed by using an isometric Grass FT-03 type tensiometer sensor device. A washing was made following the cumulative dose series of the given mediator (e.g. histamine). After reaching the base line, by 15 minutes after administration of the given concentration of the inhibitory (antiasthmatic) substance to be tested, the next cumulative dose series of the mediator was administered. In the case of an inhibitory action, the strength of effect, following the second dose series of the mediator, was […] in comparison to that of the first (control) series.
A pd'2 value was calculated [J. M. Van Rossum: Arch. Int. […] The higher the pA2 or pd'2 value, respectively were, the higher was the antagonistic effect.

Data set [6] deals with acetylcholine-induced constriction of the isolated tracheal smooth muscle of the guinea pig. Kind of data set: Inhibition of the acetylcholine-induced constriction of isolated tracheal smooth muscle of guinea pig. To be noted: Cavia porcellus, 0.25 h, isolated guinea pig trachea, read-out: pd'2 value against acetylcholine (converted). The protocol: as §1
[modified method of J. C. Castillo et al.: Exp. Ther. 90, 104 (1947)]
as §2, §3
The organ was suspended in an organ bath containing 35 ml of Krebs solution at 37° C. bubbled through by carbogen gas (consisting of 95% of oxygen and 5% of carbon dioxide).
as §4, §5
For characterization of strength of the competitive antagonistic effect the pA2 value was determined according to the method of Schield [Br. J. Pharmacol. 4, 277 (1949)]. A pd'2 value was calculated [J. M. Van Rossum: Arch. Int. Pharmacodyn 143, 317 (1963)] to characterize the noncompatitive antagonistic effectivity. The higher the pA2 or pd'2 value, respectively were, the higher was the antagonistic effect.

Where two headings read alike, the source gives them in different places.

As to `CCOc1cc2c(cc1OCC)C(=C(C#N)SCC(O)CN1CCOCC1)NCC2` (stereo not shown) [Example 18, 2-(6,7-diethoxy-1,2,3,4-tetrahydro-1-isoquinolinylidene)-2-[2-hydroxy-3-(4-morpholinyl)propyl]mercaptoacetonitrile], the IC50 in data set [1] is 0.123 µM. Besides, the “Percentage of inhibition of the active local anaphylactic reaction” value in data set [2] is reported as -31%. Besides, the values for the change in vivo at 50 mg/kg in data set [3] (1.5 hours), in data set [3] (3 hours) and in data set [3] (4.5 hours) were -35.8%, -29.3% and -28.4%, respectively. The Percentage of inhibition turned out to be 29.8% in data set [4] (30 minutes); 38.7% in data set [4] (60 minutes); 30.4% in data set [4] (90 minutes); 26.3% in data set [4] (120 minutes); 28.4% in data set [4] (180 minutes). The 50% lethal dose (LD50) – broadly, the dose at which mortality reaches 50% – is 133 mg/kg in the data set “LD50 on rat” (female rat); 91.4 mg/kg in “LD50 on rat” (male rat); 150 mg/kg in “LD50 on mouse” (iv, female mouse, read-out: LD50 i.v.); 166 mg/kg in the data set “LD50 on mouse” (iv, male mouse, read-out: LD50 i.v.); 1030 mg/kg in “LD50 on mouse” (po, female mouse, read-out: LD50 p.o.); 1200 mg/kg in the data set “LD50 on mouse” (po, male mouse, read-out: LD50 p.o.).
As for `CCOc1cc2c(cc1OCC)C(=C(C#N)SCC(CN1CCOCC1)OC(C)=O)NCC2` (stereo not shown) [Example 24, 2-(6,7-diethoxy-1,2,3,4-tetrahydro-1-isoquinolinylidene)-2-[2-acetoxy-3-(4-morpholinyl)propyl]mercaptoacetonitrile], the IC50 in data set [1] was 1.17 µM; in data set [5] it was 8.91 µM; in data set [6], 9.55 µM. Besides, the results for the change in vivo at 50 mg/kg in data set [3] (1.5 hours), in data set [3] (3 hours) and in data set [3] (4.5 hours) were -25.8%, -20.3% and -20%, respectively.
